Measured values published in patent US8802597B2, “Herbicidal pyrimidines” (E I du Pont de Nemours and Company, priority 2003, dated 2014).

How the values were obtained:
Type in all cases: in vivo
[1] = test system: transplanted rice seedlings (Oryza sativa cv. ‘Japonica-M202’); experiment: Test E flooded paddy water application; settings: Flood, 21 days, scale 0 to 100 (0 no effect, 100 complete control)
Text: (§1) Three plastic pots (ca. 16-cm diameter) per rate were partially filled with sterilized Tama silt loam soil comprising a 35:50:15 ratio of sand, silt and clay and 2.6% organic matter. Separate plantings for each of the three pots were as follows. Seeds from the U.S. of ducksalad (Heteranthera limosa), smallflower umbrella sedge (Cyperus difformis) and purple redstem (Ammannia coccinea), were planted into one 16-cm pot for each rate. Seeds from the U.S. of rice flatsedge (Cyperus iria), bearded (brdd.) sprangletop (Leptochloa fusca ssp. fascicularis), one stand of 9 or 10 water seeded rice seedlings (Oryza sativa cv. ‘Japonica-M202’), and one stand of 6 transplanted rice seedlings (Oryza sativa cv. ‘Japonica-M202’) were planted into one 16-cm pot for each rate. Seeds from the U.S. of barnyardgrass (Echinochloa crus-galli), late watergrass (Echinochloa oryzicola), early watergrass (Echinochloa oryzoides) and junglerice (Echinochloa colona) were planted into one 16-cm pot for each rate. Plantings were sequential so that crop and weed species were at the 2.0 to 2.5-leaf stage at time of treatment.
(§2) Potted plants were grown in a greenhouse with day/night temperature settings of 29.5/26.7° C., and supplemental balanced lighting was provided to maintain a 16-hour photoperiod. Test pots were maintained in the greenhouse until test completion.
(§3) At time of treatment, test pots were flooded to 3 cm above the soil surface, treated by application of test compounds directly to the paddy water, and then maintained at that water depth for the duration of the test. Effects of treatments on rice and weeds were visually evaluated by comparison to untreated controls after 21 days. Plant response ratings, summarized in Table E, are based on a scale of 0 to 100 where 0 is no effect and 100 is complete control. A dash (-) response means no test result.

[2] = test system: water seeded rice seedlings (Oryza sativa cv. ‘Japonica-M202’); experiment: Test E flooded paddy water application; settings: Flood, 21 days, scale 0 to 100 (0 no effect, 100 complete control)
Text: as §1, §2, §3

[3] = test system: bearded (brdd.) sprangletop (Leptochloa fusca ssp. fascicularis); experiment: Test E flooded paddy water application; settings: Flood, 21 days, scale 0 to 100 (0 no effect, 100 complete control)
Text: as §1, §2, §3

[4] = test system: junglerice (Echinochloa colona); experiment: Test E flooded paddy water application; settings: Flood, 21 days, scale 0 to 100 (0 no effect, 100 complete control)
Text: as §1, §2, §3

[5] = test system: ducksalad (Heteranthera limosa); experiment: Test E flooded paddy water application; settings: Flood, 21 days, scale 0 to 100 (0 no effect, 100 complete control)
Text: as §1, §2, §3

[6] = test system: rice flatsedge (Cyperus iria); experiment: Test E flooded paddy water application; settings: Flood, 21 days, scale 0 to 100 (0 no effect, 100 complete control)
Text: as §1, §2, §3

[7] = test system: late watergrass (Echinochloa oryzicola); experiment: Test E flooded paddy water application; settings: Flood, 21 days, scale 0 to 100 (0 no effect, 100 complete control)
Text: as §1, §2, §3

[8] = test system: smallflower umbrella sedge (Cyperus difformis); experiment: Test E flooded paddy water application; settings: Flood, 21 days, scale 0 to 100 (0 no effect, 100 complete control)
Text: as §1, §2, §3

[9] = test system: purple redstem (Ammannia coccinea); experiment: Test E flooded paddy water application; settings: Flood, 21 days, scale 0 to 100 (0 no effect, 100 complete control)
Text: as §1, §2, §3

[10] = test system: early watergrass (Echinochloa oryzoides); experiment: Test E flooded paddy water application; settings: Flood, 21 days, scale 0 to 100 (0 no effect, 100 complete control)
Text: as §1, §2, §3

[11] = test system: velvetleaf (Abutilon theophrasti); experiment: Test A pre/postemergence
Summary of the method: (§4)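 Soil: loam blended with sand. Formulation: non-phytotoxic solvent mixture with surfactant. Timing: preemergence soil spray plus concurrent postemergence spray (plants 2–10 cm, 1–2 leaves). Readout: visual injury versus untreated controls at ~10 days, 0–100.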

[12] = test system: giant foxtail (Setaria faberi); experiment: Test A pre/postemergence
Summary of the method: as §4

[13] = test system: barnyardgrass (Echinochloa crus-galli); experiment: Test A pre/postemergence
Summary of the method: as §4

[14] = test system: redroot pigweed (Amaranthus retroflexus); experiment: Test A pre/postemergence
Summary of the method: as §4

[15] = test system: crabgrass (Digitaria sanguinalis); experiment: Test A pre/postemergence
Summary of the method: as §4

[16] = test system: morningglory (Ipomoea spp.); experiment: Test A pre/postemergence
Summary of the method: as §4

[17] = Postemergence, 125 g ai/ha, 0 to 100 scale (0 no effect, 100 complete control)
[18] = Postemergence, 500 g ai/ha, 0 to 100 scale (0 no effect, 100 complete control)
[19] = Preemergence, 125 g ai/ha, 0 to 100 scale where 0 is no effect and 100 is complete control, approximately ten days
[20] = Preemergence, 500 g ai/ha, 0 to 100 scale where 0 is no effect and 100 is complete control, approximately ten days

CCOC(=O)c1nc(-c2ccc(F)cc2)nc(N)c1Br [Compound 63]
60: Plant response rating, Flatsedge, Rice ([6]; 16 g ai/ha)
30: Rice, Water Seeded plant response rating ([2]; 250 g ai/ha) | Junglerice plant response rating ([4]; 250 g ai/ha) | Ducksalad plant response rating ([5]; 32 g ai/ha) | Plant response rating, Ducksalad ([5]; 16 g ai/ha)
40: Sprangletop, Brdd. plant response rating ([3]; 64 g ai/ha) | Sprangletop, Brdd. plant response rating ([3]; 125 g ai/ha) | Plant response rating, Barnyardgrass [13, 20] | Plant response rating, Pigweed [14, 17]
100: Ducksalad plant response rating ([5]; 125 g ai/ha) | Ducksalad plant response rating ([5]; 250 g ai/ha)
20: Rice, Water Seeded plant response rating ([2]; 125 g ai/ha) | Plant response rating, Morningglory [16, 17]
15: Plant response rating, Velvetleaf [11, 20]
0: Rice, Transplanted plant response rating ([1]; 32 g ai/ha) | Rice, Transplanted plant response rating ([1]; 64 g ai/ha) | Rice, Transplanted plant response rating ([1]; 125 g ai/ha) | Rice, Transplanted plant response rating ([1]; 250 g ai/ha) | Plant response rating, Rice, Transplanted ([1]; 16 g ai/ha) | Rice, Water Seeded plant response rating ([2]; 32 g ai/ha) | Rice, Water Seeded plant response rating ([2]; 64 g ai/ha) | Plant response rating, Rice, Water Seeded ([2]; 16 g ai/ha) | Sprangletop, Brdd. plant response rating ([3]; 32 g ai/ha) | Plant response rating, Sprangletop, Brdd. ([3]; 16 g ai/ha) | Junglerice plant response rating ([4]; 32 g ai/ha) | Junglerice plant response rating ([4]; 64 g ai/ha) | Junglerice plant response rating ([4]; 125 g ai/ha) | Plant response rating, Junglerice ([4]; 16 g ai/ha) | Watergrass, Late plant response rating ([7]; 32 g ai/ha) | Watergrass, Late plant response rating ([7]; 64 g ai/ha) | Watergrass, Late plant response rating ([7]; 125 g ai/ha) | Watergrass, Late plant response rating ([7]; 250 g ai/ha) | Plant response rating, Watergrass, Late ([7]; 16 g ai/ha) | Watergrass, Early plant response rating ([10]; 32 g ai/ha) | Watergrass, Early plant response rating ([10]; 64 g ai/ha) | Watergrass, Early plant response rating ([10]; 125 g ai/ha) | Watergrass, Early plant response rating ([10]; 250 g ai/ha) | Plant response rating, Watergrass, Early ([10]; 16 g ai/ha) | Plant response rating, Velvetleaf [11, 19] | Plant response rating, Foxtail, Giant [12, 17] | Plant response rating, Foxtail, Giant [12, 18] | Plant response rating, Foxtail, Giant [12, 19] | Plant response rating, Barnyardgrass [13, 17] | Plant response rating, Barnyardgrass [13, 18] | Plant response rating, Barnyardgrass [13, 19] | Plant response rating, Pigweed [14, 19] | Plant response rating, Crabgrass [15, 17] | Plant response rating, Crabgrass [15, 18] | Plant response rating, Crabgrass [15, 19] | Plant response rating, Morningglory [16, 19] | Plant response rating, Morningglory [16, 20]
25: Plant response rating, Morningglory [16, 18]
65: Sprangletop, Brdd. plant response rating ([3]; 250 g ai/ha) | Ducksalad plant response rating ([5]; 64 g ai/ha) | Redstem plant response rating ([9]; 32 g ai/ha) | Redstem plant response rating ([9]; 64 g ai/ha) | Plant response rating, Redstem ([9]; 16 g ai/ha) | Plant response rating, Pigweed [14, 18]
75: Flatsedge, Rice plant response rating ([6]; 32 g ai/ha) | Flatsedge, Rice plant response rating ([6]; 64 g ai/ha) | Sedge, Umbrella plant response rating ([8]; 32 g ai/ha) | Sedge, Umbrella plant response rating ([8]; 64 g ai/ha) | Sedge, Umbrella plant response rating ([8]; 125 g ai/ha) | Redstem plant response rating ([9]; 125 g ai/ha) | Redstem plant response rating ([9]; 250 g ai/ha) | Plant response rating, Crabgrass [15, 20]
55: Plant response rating, Velvetleaf [11, 17]
85: Flatsedge, Rice plant response rating ([6]; 125 g ai/ha) | Flatsedge, Rice plant response rating ([6]; 250 g ai/ha)
80: Sedge, Umbrella plant response rating ([8]; 250 g ai/ha) | Plant response rating, Pigweed [14, 20]
70: Plant response rating, Sedge, Umbrella ([8]; 16 g ai/ha) | Plant response rating, Velvetleaf [11, 18]
35: Plant response rating, Foxtail, Giant [12, 20]
